Read-outs that look alike come from different tables or passages of the source.
Legend:
[1] = amide bond, DMF, 25.0 °C
[2] = amide bond, DMF, 25.0 °C; remark: listed apart in the source
IRAK1 = IRAK1 (Homo sapiens (Human), UniProt P51617); assay: IRAK1 enzymatic assay; format: biochemical; conditions: His-TEV-IRAK-1, ATP 1 μM, 3 hours at 30° C.
Protocol: IRAK1 is a human purified recombinant enzyme (His-TEV-IRAK1 (194-712)) In this assay, IRAK-1 hydrolyses ATP and autophosphorylates.
Measurement of IRAK-1 inhibition is performed in streptavidin coated 384 well FlashPlate (PerkinElmer #SMP410A).
His-TEV-IRAK-1 (15 ng/well), ATP (1 μM, [^33P]ATP 0.25 μCi/well) and compounds in DMSO (range of concentrations from 20 μM to 1 nM) or controls (2% DMSO) are incubated for 3 hours at 30° C. in assay buffer: Hepes pH 7.0 50 mM, Fatty acid-free BSA 0.1%, Dithiothreitol DTT 2 mM, MgCl2 10 mM, EGTA 0.5 mM, Triton-X-100 0.01%. Kinase reaction is stopped by addition of EDTA. Supernatant is discarded, plates are washed three times with 150 mM NaCl and radioactivity is then measured in a Microbeta Trilux reader.

IRAK4 = IRAK4 (Homo sapiens (Human), UniProt Q9NWZ3); assay: IRAK4 enzymatic assay; format: biochemical; conditions: His-TEV-IRAK4, ATP 2 μM, STK1-biotin peptide 300 nM, 3 hours at 30° C.
Chain of IRAK4 (Q9NWZ3 whole entry): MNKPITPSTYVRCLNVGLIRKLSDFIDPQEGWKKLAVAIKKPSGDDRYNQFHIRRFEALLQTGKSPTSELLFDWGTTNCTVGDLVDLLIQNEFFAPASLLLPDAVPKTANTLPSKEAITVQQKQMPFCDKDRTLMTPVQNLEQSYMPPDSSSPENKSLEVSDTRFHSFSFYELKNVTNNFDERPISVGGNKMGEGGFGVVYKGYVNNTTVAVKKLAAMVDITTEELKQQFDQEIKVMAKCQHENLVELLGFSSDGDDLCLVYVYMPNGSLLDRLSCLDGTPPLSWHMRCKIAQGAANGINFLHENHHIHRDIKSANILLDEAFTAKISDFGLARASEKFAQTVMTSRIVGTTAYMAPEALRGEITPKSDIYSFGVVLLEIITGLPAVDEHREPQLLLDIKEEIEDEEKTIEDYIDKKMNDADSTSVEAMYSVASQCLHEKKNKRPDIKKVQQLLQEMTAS
Protocol: IRAK4 is a human purified recombinant enzyme (His-TEV-IRAK1 (194-712) IRAK4 hydrolyses ATP, autophosphorylates and phosphorylates a Serine/Threonine generic peptidic substrate (STK: 61ST1BLC from CisBio International based in Bagnols/Cèze FR).
Measurement of IRAK-4 inhibition is performed in streptavidin coated 384 well FlashPlate (PerkinElmer #SMP410A). His-TEV-IRAK4 (20 ng/well), ATP (2 μM, [^33P]ATP 0.25 μCi/well), STK1-biotin peptide (300 nM) and compounds in DMSO (range of concentrations from 20 μM to 1 nM) or controls (2% DMSO) are incubated for 3 hours at 30° C. in assay buffer: Hepes pH 7.0 50 mM, Fatty acid-free BSA 0.1%, Dithiothreitol DTT 2 mM, MgCl2 10 mM, EGTA 0.5 mM, Tween-20 0.01%, MnCl2 5 mM.
Kinase reaction is stopped by addition of EDTA. Supernatant is discarded, plates are washed three times with 150 mM NaCl and radioactivity is then measured in a Microbeta Trilux reader.

[3] = system: TLR7 induced IL-6 secretion in human mononuclear cells (PBMC's); assay: TLR7 induced IL-6 in human PBMC's; format: cell-based; conditions: TLR7 specific ligand 2 uM overnight, IL-6 AlphaLISA
Protocol: TLR7 Induced IL-6 in Human PBMC's
Human PBMC assay is used as one of the functional assay to monitor the activity of IRAK1 and IRAK4 small molecule inhibitors on TLR7 induced IL-6 secretion in human mononuclear cells (PBMC's). Human PBMCs are prepared from buffy coats (whole blood enriched with leukocytes and platelets) obtained from healthy volunteers used either fresh or frozen are plated in assay media (RPMI+2% P/S/L-glu+10% HI-FBS) and pre-treated with compounds in DMSO/media (range of concentrations from 25 μM to 0.4 nM) or controls (0.25% DMSO) for 30 minutes at 37° C. in assay media. Following pre-treatment with IRAK1 and IRAK4 inhibitors, PBMC's are stimulated with TLR7 specific ligand (2 uM) overnight (16-18 hrs) at 37° C. After incubation supernatant is transferred to 384 well PE AlphaPlate-384 (6005350) and IL-6 is quantified using Perkin Elmer IL-6 Alpha LISA kit (AL223C). Plates are read on an Envision® plate reader with Alpha Technology®.

Chain of IRAK1 (P51617 194-712): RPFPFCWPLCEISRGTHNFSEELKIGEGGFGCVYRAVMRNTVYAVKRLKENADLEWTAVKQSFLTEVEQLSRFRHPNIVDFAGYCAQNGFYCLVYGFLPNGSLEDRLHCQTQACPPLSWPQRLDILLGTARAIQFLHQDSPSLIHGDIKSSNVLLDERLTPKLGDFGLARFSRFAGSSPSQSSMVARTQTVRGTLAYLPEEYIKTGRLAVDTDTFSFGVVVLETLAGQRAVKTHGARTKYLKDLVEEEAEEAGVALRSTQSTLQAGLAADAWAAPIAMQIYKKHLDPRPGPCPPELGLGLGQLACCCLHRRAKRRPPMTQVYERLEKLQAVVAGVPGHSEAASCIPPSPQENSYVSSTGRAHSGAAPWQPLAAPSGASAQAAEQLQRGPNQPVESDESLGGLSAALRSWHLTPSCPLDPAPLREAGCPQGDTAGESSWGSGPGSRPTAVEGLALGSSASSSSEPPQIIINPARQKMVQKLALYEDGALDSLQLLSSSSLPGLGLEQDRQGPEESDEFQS

SMILES	IC50 (IRAK1) [nM]	IC50 (IRAK4) [nM]	ring closure, isolated yield ([1]; from Nc1nc2ccccc2n1CC(O)C1CCCN(c2ccc(=O)n(Cc3cccc(C(=O)[O-])c3)n2)C1, 16-membered ring, HATU/HOAt/DMAP/DIEA, 1.27 mM) [%]	ring closure, isolated yield ([1]; from Nc1nc2ccccc2n1Cc1cccc(-c2ccc(=O)n(Cc3cccc(C(=O)[O-])c3)n2)c1, 15-membered ring, HBTU/HOBt/NMM, 10.0 mM) [%]	ring closure, yield of all isomers ([2]; from Nc1nc2ccccc2n1Cc1cccc(-c2ccc(=O)n(Cc3cccc(C(=O)O)c3)n2)c1, HBTU/HOBt/N-methylmorpholine, 10.0 mM, 15.0 h) [%]	IC50 [3] [nM]	ring closure, isolated yield ([1]; from potassium 3-{3-[4-(2-Amino-benzoimidazol-1-yl)-3-hydroxy-butoxy]-6-oxo-6H-pyridazin-1-ylmethyl}-benzoic acetate, 16-membered ring, HATU/HOAt/DMAP/DIEA, 2.4 mM) [%]	ring closure, yield of all isomers ([2]; from Nc1nc2ccccc2n1CC(O)CCOc1ccc(=O)n(Cc2cccc(C(=O)O)c2)n1, HATU/HOAt/DMAP/DIPEA, 2.44 mM, 14.0 h) [%]
O=C1Nc2nc3ccccc3n2CC(O)C2CCCN(C2)c2ccc(=O)n(n2)Cc2cccc1c2 (centres unmarked)			16					
Cc1ccc2cc1-c1ccc(=O)n(n1)Cc1cccc(c1)C(=O)Nc1nc3ccccc3n1C2 [Compound 8, 3-Methyl-8,15,17,25,29-pentaazahexacyclo[23.3.1.1^2,61^19,230^8,160^9,14]hentriaconta-1(29),2(31),3,5,9(14),10,12,15,19(30),20,22,27-dodecaene-18,26-dione]	< 100	< 100				100 to 1000		
O=C1Nc2nc3ccccc3n2Cc2ccc(O)c(c2)-c2ccc(=O)n(n2)Cc2cccc1c2 [Compound 12, 3-hydroxy-8,15,17,25,29-pentaazahexacyclo[23.3.1.1^2,6.1^19,23.0^8,16.0^9,14]hentriaconta-1(29),2(31),3,5,9(14),10,12,15,19(30),20,22,27-dodecaene-18,26-dione]	< 100	< 100				1000 to 5000		
O=C1Nc2nc3ccccc3n2Cc2cc(ccc2O)-c2ccc(=O)n(n2)Cc2cccc1c2 [Compound 20, 5-hydroxy-8,15,17,25,29-pentaazahexacyclo[23.3.1.1^2,6.1^19,23.08,16.0^9,14]hentriaconta-1(29),2(31),3,5,9(14),10,12,15,19(30),20,22,27-dodecaene-18,26-dione]	< 100	< 100				< 100		
O=C(O)c1ccc2c(c1)nc1n2Cc2cccc(c2)-c2ccc(=O)n(n2)Cc2cccc(c2)C(=O)N1 [Compound 21]	< 100	< 100				100 to 1000		
CC(=O)NCCc1ccc2c(c1)nc1n2Cc2cccc(c2)-c2ccc(=O)n(n2)Cc2cccc(c2)C(=O)N1 [Compound 25]	< 100	< 100				< 100		

Further lines, with some results ahead:

IC50 (IRAK1) [nM]	IC50 (IRAK4) [nM]	SMILES	ring closure, isolated yield ([1]; from Nc1nc2ccccc2n1CC(O)C1CCCN(c2ccc(=O)n(Cc3cccc(C(=O)[O-])c3)n2)C1, 16-membered ring, HATU/HOAt/DMAP/DIEA, 1.27 mM) [%]	ring closure, isolated yield ([1]; from Nc1nc2ccccc2n1Cc1cccc(-c2ccc(=O)n(Cc3cccc(C(=O)[O-])c3)n2)c1, 15-membered ring, HBTU/HOBt/NMM, 10.0 mM) [%]	ring closure, yield of all isomers ([2]; from Nc1nc2ccccc2n1Cc1cccc(-c2ccc(=O)n(Cc3cccc(C(=O)O)c3)n2)c1, HBTU/HOBt/N-methylmorpholine, 10.0 mM, 15.0 h) [%]	IC50 [3] [nM]	ring closure, isolated yield ([1]; from potassium 3-{3-[4-(2-Amino-benzoimidazol-1-yl)-3-hydroxy-butoxy]-6-oxo-6H-pyridazin-1-ylmethyl}-benzoic acetate, 16-membered ring, HATU/HOAt/DMAP/DIEA, 2.4 mM) [%]	ring closure, yield of all isomers ([2]; from Nc1nc2ccccc2n1CC(O)CCOc1ccc(=O)n(Cc2cccc(C(=O)O)c2)n1, HATU/HOAt/DMAP/DIPEA, 2.44 mM, 14.0 h) [%]
< 100	< 100	O=C1Nc2nc3ccccc3n2Cc2cccc(c2)-c2ccc(=O)n(n2)Cc2cccc1c2 [Compound 1, 8,15,17,25,29-pentaazahexacyclo[23.3.1.1^2,61^19,230^8,160^9,14]hentriaconta-1(29),2(31),3,5,9(14),10,12,15,19(30),20,22,27-dodecaene-18,26-dione]		26	26	100 to 1000		
< 100	< 100	O=C1Nc2nc3ccccc3n2CCc2cccc(c2)-c2ccc(=O)n(n2)Cc2cccc1c2 [Compound 2, 6,14,16,23,32-pentaazahexacyclo[24.3.1.1^2,6.1^8,12.0^15,23.0^17,22]dotriaconta-1(30),2(32),3,8,10,12(31),15,17(22),18,20,26,28-dodecaene-5,13-dione]				100 to 1000		
< 100	< 100	COc1cc2nc3n(c2cc1OC)Cc1cccc(c1)-c1ccc(=O)n(n1)Cc1cccc(c1)C(=O)N3 [Compound 5, 11,12-dimethoxy-8,15,17,25,29-pentaazahexacyclo[23.3.1.1^2,61^19,23.0^8,16.0^9,14]hentriaconta-1(29),2(31),3,5,9(14),10,12,15,19(30),20,22,27-dodecaene-18,26-dione]				< 100		
< 100	< 100	O=C1Nc2nc3ccccc3n2Cc2cc(ccn2)-c2ccc(=O)n(n2)Cc2cccc1c2 [Compound 16]				< 100		
< 100	< 100	O=C1Nc2nc3ccccc3n2CC(O)c2cccc(c2)-c2ccc(=O)n(n2)Cc2cccc1c2 (centres unmarked) [Compound 17]				< 100		
< 100	< 100	O=C1Nc2nc3ccccc3n2CC(O)CCOc2ccc(=O)n(n2)Cc2cccc1c2 (centres unmarked) [Compound 18, 20-hydroxy-23-oxa-1,9,11,18,28-pentaazapentacyclo[22.3.1.1^3,7.0^10,18.0^12,17]nonacosa-3,5,7(29),10,12(17),13,15,24(28),25-nonaene-8,27-dione]				100 to 1000	7	7

Source: patent US10064861B2, “Macrocyclic pyridazinone derivatives” (Merck Patent GmbH, priority 2013, dated 2018)
